The record followed here is PubChem BioAssay AID1205 (EPA DSSTox, 2008).

Calls of active or inactive are those of the source.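 The calls were made as follows: active = tumour findings in long-term animal cancer tests in more than one sex, species or organ; inactive = no tumour finding and more than one negative test.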

This series is described as follows: DSSTox (CPDBAS) Carcinogenic Potency Database Summary MultiCellCall Results. As to conditions: animal carcinogenicity bioassays, multi-cell call summary. In short, it runs like this:
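ActivityScore sums 50 for multispecies, 30 for multisex and 20 for multisite positivity. Based on the most positive experiment per sex-species across standardised chronic rodent and other animal cancer tests.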
Take `CC1=C(C(=O)OCCN(Cc2ccccc2)c2ccccc2)C(c2cccc([N+](=O)[O-])c2)C(P2(=O)OCC(C)(C)CO2)=C(C)N1` (stereo not given): the outcome was “inactive; multisex inactive; multispecies inactive”.

Regarding `CN(N=O)C(N)=O`, the outcome was “active; multisite active; multispecies active”.

As for `OC[C@@H](O)[C@@H](O)[C@H](O)[C@H](O)CO[C@H]1O[C@H](CO)[C@@H](O)[C@H](O)[C@H]1O`, the outcome was “inactive; multisex inactive”.

`CCNc1nc(Cl)nc(NC(C)C)n1`: the outcome was “active; multisite active; multisex active”.

Regarding `CC(O)CN(CC(C)O)N=O` (stereo not given), the outcome was “active; multisite active; multisex active”.

With `c1ccc(Nc2ccc3ccccc3c2)cc1`, the outcome is “inactive; multisex inactive; multispecies inactive”.

Turning to `S=C([S-])NCCNC(=S)[S-].[Zn+2]`, the outcome is “inactive; multisex inactive; multispecies inactive”.

`C=CC=O`: the outcome is “inactive; multisex inactive; multispecies inactive”.

With `CC(=O)C(N=Nc1ccc(-c2ccc(N=NC(C(C)=O)C(=O)Nc3ccccc3)c(Cl)c2)cc1Cl)C(=O)Nc1ccccc1` (stereo not given), the outcome is “inactive; multisex inactive; multispecies inactive”.

As for `Clc1ccc(C(c2ccccc2Cl)C(Cl)Cl)cc1` (stereo not given), the outcome was “inactive; multisex inactive”.

As to `C=CC1=C(C)C2=CC3=NC(=C(CC(=O)[O-])C4=NC(=C(C)C4=C([O-])[O-])C=c4[n-]c(c(C)c4CC)=CC1=N2)[C@@H](CCC(=O)[O-])[C@@H]3C.[Cu+2].[Na+].[Na+].[Na+]`, the outcome was “inactive; multisex inactive”.

In the case of `c1ccc(OCC2CO2)cc1` (stereo not given), the outcome was “active; multisex active”.

On to `CC(Oc1c(Cl)cccc1Cl)C1=NCCN1` (stereo not given), for which the outcome is “inactive; multisex inactive”.

For `COc1ccccc1[N+](=O)[O-]`, the outcome was “active; multisite active; multisex active; multispecies active”.

With `Oc1cccc(O)c1`, the outcome was “inactive; multisex inactive; multispecies inactive”.

As to `CCc1nc(N)nc(N)c1-c1ccc(Cl)cc1`, the outcome was “inactive; multisex inactive; multispecies inactive”.

`Cc1cc(C)c(N=Nc2c(O)c(S(=O)(=O)O)cc3cc(S(=O)(=O)O)ccc23)cc1C`: the outcome was “active; multisex active”.

As for `C=Cc1ccc(C)cc1`, the outcome was “inactive; multisex inactive”.

`CCCCOCCO`: the outcome was “active; multisite active; multisex active”.

In the case of `C1CO1`, the outcome is “active; multisite active; multisex active; multispecies active”.

Consider `[K+]`, for which the outcome is “active; multisex active”.

In the case of `COc1cc2c(cc1N)oc1ccccc12`, the outcome was “active; multisite active; multisex active”.

As for `Cc1cc(N)ccc1N`, the outcome was “inactive; multisex inactive; multispecies inactive”.

With `Cc1cccc2ccccc12`, the outcome was “inactive; multisex inactive”.

`Cc1ccccc1N`: the outcome is “active; multisite active; multisex active; multispecies active”.

In the case of `O=NN1CC=CCC1`, the outcome is “active; multisite active”.

On to `CCCOC(=O)c1cc(O)c(O)c(O)c1`, for which the outcome is “inactive; multisex inactive; multispecies inactive”.

For the compound `Cc1ccc2c(c1[N+](=O)[O-])C(=O)c1ccccc1C2=O`, the outcome was “active; multisite active; multisex active; multispecies active”.

With `CCNc1nc(Cl)nc(NCC)n1`, the outcome was “inactive; multisex inactive”.

On to `COc1ccccc1N1CCN(CCCNc2cc(=O)n(C)c(=O)n2C)CC1`, for which the outcome is “inactive; multisex inactive”.

Turning to `CCn1cc(C(=O)O)c(=O)c2ccc(C)nc21`, the outcome is “active; multisite active; multisex active”.

As for `CC(C)Oc1ccc(Nc2ccccc2)cc1`, the outcome is “inactive; multisex inactive”.

As to `O=[N+]([O-])c1ccc2nc[nH]c2c1`, the outcome was “active; multisex active”.

For the compound `CCOC(=O)C1OC1(C)c1ccccc1` (stereo not given), the outcome is “inactive; multisex inactive”.

In the case of `O=NO`, the outcome is “active; multisite active; multisex active”.
